# Measurements: article PMC11124336 (Molecules, 2024)
# T1: Type II NADH dehydrogenase (NDH-2, NdhC) (Staphylococcus aureus, UniProt Q2FZV7)
# T1 construct: gene SAOUHSC_00878; N-terminal 6His-tagged NDH-2 (ndhC gene from S. aureus 25923)
# T1 sequence (Q2FZV7 1-402): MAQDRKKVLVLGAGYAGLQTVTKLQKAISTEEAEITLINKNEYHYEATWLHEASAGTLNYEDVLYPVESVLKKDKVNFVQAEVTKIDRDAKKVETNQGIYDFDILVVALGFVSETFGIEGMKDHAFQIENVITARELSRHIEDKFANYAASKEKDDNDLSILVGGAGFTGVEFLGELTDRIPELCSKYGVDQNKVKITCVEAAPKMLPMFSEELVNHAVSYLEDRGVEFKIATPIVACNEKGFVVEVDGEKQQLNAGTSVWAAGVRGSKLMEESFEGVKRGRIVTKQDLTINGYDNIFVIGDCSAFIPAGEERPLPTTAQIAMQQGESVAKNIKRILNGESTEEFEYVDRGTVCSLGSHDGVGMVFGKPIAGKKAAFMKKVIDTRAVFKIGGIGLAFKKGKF
# How the values were obtained:
# [1] = target: T1, Type II NADH dehydrogenase (NDH-2, NdhC); test: NADH oxidation assay at […] nm with menadione; type: biochemical
# [2] = target: T1, Type II NADH dehydrogenase (NDH-2, NdhC); test: activity of FAD-depleted purified enzyme restored by added FAD; type: biochemical
# [3] = substrate: CC1=CC(=O)c2ccccc2C1=O; test: steady-state kinetics of purified enzyme (Km); type: biochemical, Staphylococcus aureus; conditions: FAD
# [4] = substrate: NC(=O)C1=CN([C@@H]2O[C@H](COP(=O)(O)OP(=O)(O)OC[C@H]3O[C@@H](n4cnc5c(N)ncnc54)[C@H](O)[C@@H]3O)[C@@H](O)[C@H]2O)C=CC1; test: steady-state kinetics of purified enzyme (Km); type: biochemical, Staphylococcus aureus; conditions: FAD
molecule,measurement,setting,value
"CCCCCCCc1cc(O)c2ccccc2[n+]1[O-] [HQNO, 2-heptyl-4-hydroxyquinoline-N-oxide]",IC50,[1],9 µM
Cc1cc2nc3c(=O)[nH]c(=O)nc-3n(C[C@H](O)[C@H](O)[C@H](O)COP(=O)(O)OP(=O)(O)OC[C@H]3O[C@@H](n4cnc5c(N)ncnc54)[C@H](O)[C@@H]3O)c2cc1C [FAD],activity of FAD-depleted purified enzyme restored by added FAD,[2],the addition of exogenous FAD to the reaction mix restored the NADH dehydrogenase activity of the recombinant protein
"Type II NADH dehydrogenase (NDH-2, NdhC) (Staphylococcus aureus subsp. aureus NCTC 8325) (protein, N-terminal 6His-tagged NDH-2 (ndhC gene from S. aureus 25923)) MAQDRKKVLVLGAGYAGLQTVTKLQKAISTEEAEITLINKNEYHYEATWLHEASAGTLNYEDVLYPVESVLKKDKVNFVQAEVTKIDRDAKKVETNQGIYDFDILVVALGFVSETFGIEGMKDHAFQIENVITARELSRHIEDKFANYAASKEKDDNDLSILVGGAGFTGVEFLGELTDRIPELCSKYGVDQNKVKITCVEAAPKMLPMFSEELVNHAVSYLEDRGVEFKIATPIVACNEKGFVVEVDGEKQQLNAGTSVWAAGVRGSKLMEESFEGVKRGRIVTKQDLTINGYDNIFVIGDCSAFIPAGEERPLPTTAQIAMQQGESVAKNIKRILNGESTEEFEYVDRGTVCSLGSHDGVGMVFGKPIAGKKAAFMKKVIDTRAVFKIGGIGLAFKKGKF",Km,[3],19.9 ± 0.7 µM
same,Km,[4],90.8 ± 16.2 µM
